For one molecule, IC50 results are on record in ChEMBL document CHEMBL3774318, “Synthesis and antiproliferative activity of goniobutenolides A and B, 5-halogenated crassalactone D derivatives and the corresponding 7-epimers” (Eur J Med Chem, 2016).

SMILES strings stand for the structures.

As a reminder, the IC50 is the concentration that gives 50% inhibition.

A short description of assay [1]: Cytotoxicity against human Jurkat T cells assessed as cell growth inhibition after 72 hrs by MTT assay. In kind it is functional, cell-based. (In general: Formazan colour is commonly taken as a measure of viable cells.)
Assay [2] can be described thus: Cytotoxicity against human HL60 cells assessed as cell growth inhibition after 72 hrs by MTT assay. In kind it is functional, cell-based. Conditions: HL-60, 72 h.

As for `COc1cccc2c1C(=O)c1c(O)c3c(c(O)c1C2=O)C[C@@](O)(C(=O)CO)C[C@@H]3O[C@H]1C[C@H](N)[C@H](O)[C@H](C)O1` [DOXORUBICIN], the values for the IC50 in assay [1] and in assay [2] were 30 nM and 920 nM, respectively.
